Structures are written as SMILES. Bounds are passed on as bounds.

These results are taken from patent US20230357269A1 (LES LABORATOIRES SERVIER, priority 2020, published 2023).

human recombinant LRRK2 protein, sequence (Q5S007 whole entry): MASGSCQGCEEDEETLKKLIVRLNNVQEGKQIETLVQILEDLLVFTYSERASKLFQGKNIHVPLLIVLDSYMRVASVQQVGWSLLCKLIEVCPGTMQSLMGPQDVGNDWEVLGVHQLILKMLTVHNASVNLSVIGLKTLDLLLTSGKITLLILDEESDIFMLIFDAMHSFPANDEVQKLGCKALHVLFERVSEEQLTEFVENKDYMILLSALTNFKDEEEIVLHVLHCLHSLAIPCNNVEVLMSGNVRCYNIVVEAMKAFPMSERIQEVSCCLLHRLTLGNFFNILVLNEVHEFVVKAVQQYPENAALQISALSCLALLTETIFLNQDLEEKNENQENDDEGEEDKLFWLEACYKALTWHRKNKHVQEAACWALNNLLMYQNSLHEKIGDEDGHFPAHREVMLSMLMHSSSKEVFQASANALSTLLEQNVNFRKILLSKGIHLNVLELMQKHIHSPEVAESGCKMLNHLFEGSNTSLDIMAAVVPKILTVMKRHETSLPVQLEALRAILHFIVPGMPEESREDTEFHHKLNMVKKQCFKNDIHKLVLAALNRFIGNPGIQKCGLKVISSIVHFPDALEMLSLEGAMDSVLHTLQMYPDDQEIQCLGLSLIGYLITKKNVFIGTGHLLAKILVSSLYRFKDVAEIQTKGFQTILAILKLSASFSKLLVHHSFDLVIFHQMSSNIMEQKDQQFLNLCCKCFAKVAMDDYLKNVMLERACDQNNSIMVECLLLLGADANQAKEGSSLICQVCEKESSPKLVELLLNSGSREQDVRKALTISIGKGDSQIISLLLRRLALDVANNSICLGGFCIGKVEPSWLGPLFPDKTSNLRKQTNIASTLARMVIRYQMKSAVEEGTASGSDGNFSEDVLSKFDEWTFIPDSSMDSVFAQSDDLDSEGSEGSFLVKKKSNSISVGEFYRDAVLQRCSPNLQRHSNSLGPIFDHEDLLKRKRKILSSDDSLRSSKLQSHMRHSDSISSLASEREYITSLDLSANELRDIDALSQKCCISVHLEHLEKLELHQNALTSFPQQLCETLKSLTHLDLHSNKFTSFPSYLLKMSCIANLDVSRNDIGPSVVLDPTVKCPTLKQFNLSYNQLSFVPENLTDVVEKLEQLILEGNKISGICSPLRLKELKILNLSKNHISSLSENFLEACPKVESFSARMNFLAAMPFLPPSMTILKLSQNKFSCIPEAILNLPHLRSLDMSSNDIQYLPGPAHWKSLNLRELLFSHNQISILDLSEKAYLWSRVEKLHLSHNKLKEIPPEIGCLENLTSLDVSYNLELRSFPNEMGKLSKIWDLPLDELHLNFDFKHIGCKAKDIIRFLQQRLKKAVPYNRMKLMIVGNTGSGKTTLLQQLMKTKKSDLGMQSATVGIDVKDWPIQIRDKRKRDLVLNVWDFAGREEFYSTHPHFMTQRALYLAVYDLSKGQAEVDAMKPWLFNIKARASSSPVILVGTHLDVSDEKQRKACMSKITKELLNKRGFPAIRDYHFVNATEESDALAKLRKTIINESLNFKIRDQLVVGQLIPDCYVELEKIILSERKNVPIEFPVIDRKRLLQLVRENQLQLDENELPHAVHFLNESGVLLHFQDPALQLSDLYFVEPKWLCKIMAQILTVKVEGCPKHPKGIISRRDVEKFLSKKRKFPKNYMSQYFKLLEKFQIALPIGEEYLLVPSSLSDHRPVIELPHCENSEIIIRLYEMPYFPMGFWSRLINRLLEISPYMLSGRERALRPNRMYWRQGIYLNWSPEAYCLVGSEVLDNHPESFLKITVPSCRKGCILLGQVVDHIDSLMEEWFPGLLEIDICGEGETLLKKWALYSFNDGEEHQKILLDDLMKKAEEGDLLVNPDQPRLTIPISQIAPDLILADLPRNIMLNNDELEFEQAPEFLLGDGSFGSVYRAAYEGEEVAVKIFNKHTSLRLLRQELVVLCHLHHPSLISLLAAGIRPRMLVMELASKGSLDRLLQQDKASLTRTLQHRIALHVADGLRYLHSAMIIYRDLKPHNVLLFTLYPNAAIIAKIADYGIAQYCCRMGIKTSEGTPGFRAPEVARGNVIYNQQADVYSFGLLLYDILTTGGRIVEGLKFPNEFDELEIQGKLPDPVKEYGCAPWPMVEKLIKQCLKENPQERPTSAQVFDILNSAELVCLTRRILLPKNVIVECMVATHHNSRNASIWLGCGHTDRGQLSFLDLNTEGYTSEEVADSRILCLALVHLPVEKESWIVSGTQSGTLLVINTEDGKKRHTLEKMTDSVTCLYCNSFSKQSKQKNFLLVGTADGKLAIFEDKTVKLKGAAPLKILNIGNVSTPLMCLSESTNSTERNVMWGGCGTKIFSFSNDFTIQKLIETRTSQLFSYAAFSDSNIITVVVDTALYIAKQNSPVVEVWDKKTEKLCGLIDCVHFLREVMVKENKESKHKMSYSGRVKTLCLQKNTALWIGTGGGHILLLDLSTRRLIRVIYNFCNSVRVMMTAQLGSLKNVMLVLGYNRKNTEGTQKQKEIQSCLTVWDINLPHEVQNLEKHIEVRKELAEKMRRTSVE

The target in this assay is human recombinant LRRK2 protein (Homo sapiens (Human), UniProt Q5S007). In words: LRRK2 Kinase Activity Assay (ADP-Glo). The settings on record: LRRK2 wt; LRRKtide peptide and ATP substrates; 1h-incubation at 37° C. In kind it is biochemical. An outline of the steps:
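Recombinant human LRRK2 acted on LRRKtide peptide and ATP for 1 h at 37 °C. ADP formed was detected by ADP-Glo luminescence (ATP depletion, then ADP-to-ATP conversion and luciferase). IC50s came from curve fits over 10 concentrations (N=2).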
Consider `O=C1NCCCOc2ccc3[nH]nc(c3c2)-c2cc(cc(C3CCOC3)c2)CO1` (stereo not shown) [Example 61, 4-(oxolan-3-yl)-8,14-dioxa-10,19,20-triazatetracyclo[13.5.2.1^2,6.0^18,21]tricosa-1(20),2,4,6(23),15,17,21-heptaen-9-one], for which the IC50 was less than 10 nM.

`C#Cc1cc2cc(c1)-c1n[nH]c3ccc(cc13)OCCCNC(=O)OC2` [Example 80, 4-ethynyl-8,14-dioxa-10,19,20-triazatetracyclo[13.5.2.1^2,6.0^18,21]tricosa-1(20),2(23),3,5,15(22),16,18(21)-heptaen-9-one]: the 50% inhibitory concentration (IC50) was less than 10 nM.

Regarding `Cc1cc2cc(c1F)C(C)OC(=O)NCCCOc1ccc3[nH]nc-2c3c1` (stereo not shown) [Example 90, 5-fluoro-4,7-dimethyl-8,14-dioxa-10,19,20-triazatetracyclo[13.5.2.1^2,6.0^18,21]tricosa-1(20),2(23),3,5,15(22),16,18(21)-heptaen-9-one], the half-inhibitory concentration (IC50) was less than 10 nM.

Take `CCC1OC(=O)NCCCOc2ccc3[nH]nc(c3c2)-c2cccc1c2` (stereo not shown) [Example 104, 7-ethyl-8,14-dioxa-10,19,20-triazatetracyclo[13.5.2.1^2,6.0^18,21]tricosa-1(20),2,4,6(23),15,17,21-heptaen-9-one]: the IC50 fell in the range of 10 to 100 nM.

Take `C[C@@H]1CCNC(=O)OCc2ccnc(n2)-c2n[nH]c3ccc(cc23)O1` [Example 140, (13R)-13-methyl-8,14-dioxa-3,10,19,20,23-pentaazatetracyclo[13.5.2.1^2,6.0^18,21]tricosa-1(20),2,4,6(23),15,17,21-heptaen-9-one]: the concentration for half-maximal inhibition (IC50) lay in the range of 10 to 100 nM.

In the case of `O=C1NCCCOc2ccc3[nH]nc(c3c2)-c2cc(cc(C3=CCOC3)c2)CO1` [Example 37, 4-(2,5-dihydrofuran-3-yl)-8,14-dioxa-10,19,20-triazatetracyclo[13.5.2.1^2,6.0^18,21]tricosa-1(20),2,4,6(23),15,17,21-heptaen-9-one], the IC50 is less than 10 nM.

For the molecule `Cc1cc2cc(c1)-c1n[nH]c3ccc(cc13)OCCCN(C)C(=O)OC2` [Example 54, 4,10-dimethyl-8,14-dioxa-10,19,20-triazatetracyclo[13.5.2.1^2,6.0^18,21]tricosa-1(20),2,4,6(23),15,17,21-heptaen-9-one], the IC50 is less than 10 nM.

With `O=C1NCCCOc2ccc3[nH]nc(c3c2)-c2cc(F)cc(c2)CO1` [Example 3, 4-fluoro-8,14-dioxa-10,19,20-triazatetracyclo[13.5.2.1^2,6.0^18,21]tricosa-1(20), 2,4,6(23),15,17,21-heptaen-9-one], the concentration for half-maximal inhibition (IC50) is less than 10 nM.

As to `O=C1NCCCOc2ccc3[nH]nc(c3c2)-c2cc(cc(N3CCC(N4CCCC4)CC3)c2)CO1` [Example 34, 4-[4-(pyrrolidin-1-yl)piperidin-1-yl]-8,14-dioxa-10,19,20-triazatetracyclo[13.5.2.1^2,6.0^18,21]tricosa-1(20),2,4,6(23),15,17,21-heptaen-9-one], the IC50 is less than 10 nM.

As to `C[C@H]1OC(=O)NCCCOc2ccc3[nH]nc(c3c2)-c2cccc1c2` [Example 68, (7R)-7-methyl-8,14-dioxa-10,19,20-triazatetracyclo[13.5.2.1^2,6.0^18,21]tricosa-1(20),2(23),3,5,15(22),16,18(21)-heptaen-9-one], the IC50 is less than 10 nM.

Turning to `C[C@@H]1CCNC(=O)OCCn2ncc(n2)-c2n[nH]c3ccc(cc23)O1` [Example 159, (13R)-13-methyl-8,14-dioxa-4,5,10,19,20,23-hexaazatetracyclo[13.5.2.1^2,5.0^18,21]tricosa-1(20),2(23),3,15,17,21-hexaen-9-one], the IC50 was less than 10 nM.

With `O=C1NCCCOc2ccc3[nH]nc(c3c2)-c2cc(cc(N3C[C@@H]4C[C@H]3CO4)c2)CO1` [Example 40], the IC50 was less than 10 nM.

Take `CC1OC(=O)NCC[C@@H](C)Oc2ccc3[nH]nc(c3c2)-c2ccnc1n2` (single isomer, unassigned) [Example 131, (7R,13R)- or (7S,13R)-7,13-dimethyl-8,14-dioxa-5,10,19,20,23-penta azatetracyclo[13.5.2.1^2,6.0^18,21]tricosa-1(20),2,4,6(23),15,17,21-heptaen-9-one]: the IC50 is less than 10 nM.

Regarding `COc1c(F)cc2cc1C(C)OC(=O)NCCCOc1ccc3[nH]nc-2c3c1` (stereo not shown) [Example 89, 4-fluoro-5-methoxy-7-methyl-8,14-dioxa-10,19,20-triazatetracyclo[13.5.2.1^2,6.0^18,21]tricosa-1(20),2(23),3,5,15(22),16,18(21)-heptaen-9-one], the IC50 is 100 to 1000 nM.

As for `O=C1OC2CN1CCCOc1ccc3[nH]nc(c3c1)-c1cccc2c1` (stereo not shown) [Example 91, 8,14-dioxa-10,19,20-triazapentacyclo[13.5.2.1^2,6.1^7,10.0^18,21]tetracosa-1(20),2(24),3,5,15(22),16,18(21)-heptaen-9-one], the IC50 was less than 10 nM.

As for `CN1CC=C(c2cc3cc(c2)-c2n[nH]c4ccc(cc24)OCCCNC(=O)OC3)CC1` [Example 39, 4-(1-methyl-1,2,3,6-tetrahydropyridin-4-yl)-8,14-dioxa-10,19,20-triazatetra cyclo[13.5.2.1^2,6.0^18,21]tricosa-1(20),2,4,6(23),15,17,21-heptaen-9-one], the half-maximal inhibitory concentration (IC50) was less than 10 nM.

For the molecule `C[C@@H]1CCNC(=O)OCc2cncc(c2)-c2n[nH]c3cc(F)c(cc23)O1` [Example 124, (13R)-16-fluoro-13-methyl-8,14-dioxa-4,10,19,20-tetraazatetracyclo[13.5.2.1^2,6.0^18,21]tricosa-1(20),2,4,6(23),15,17,21-heptaen-9-one], the 50% inhibitory concentration (IC50) was less than 10 nM.

In the case of `O=C1NCCCOc2ccc3[nH]nc(c3c2)-c2cc(cc(OCCN3CCOCC3)c2)CO1` [Example 66, 4-[2-(morpholin-4-yl)ethoxy]-8,14-dioxa-10,19,20-triazatetracyclo[13.5.2.1^2,6.0^18,21]tricosa-1(20),2(23),3,5,15(22),16,18(21)-heptaen-9-one], the half-maximal inhibitory concentration (IC50) is less than 10 nM.

For `C[C@@H]1CCNC(=O)OCc2nccc(n2)-c2n[nH]c3ccc(cc23)O1` [Example 105, (13R)-13-methyl-8,14-dioxa-5,10,19,20,23-pentaazatetracyclo[13.5.2.1^2,6.0^18,21]tricosa-1(20),2,4,6(23),15,17,21-heptaen-9-one], the IC50 is less than 10 nM.

For `CC(C)N1CCN(c2cc3cc(c2)-c2n[nH]c4ccc(cc24)OCCCNC(=O)OC3)CC1` [Example 13, 4-[4-(propan-2-yl)piperazin-1-yl]-8,14-dioxa-10,19,20-triazatetracyclo[13.5.2.1^2,6.0^18,21]tricosa-1(20),2,4,6(23),15,17,21-heptaen-9-one], the IC50 was less than 10 nM.

Turning to `COCCN1CCN(c2cc3cc(c2)-c2n[nH]c4ccc(cc24)OCCCNC(=O)OC3)CC1` [Example 46, 4-[4-(2-methoxyethyl)piperazin-1-yl]-8,14-dioxa-10,19,20-triazatetracyclo[13.5.2.1^2,6.0^18,21]tricosa-1(20),2,4,6(23),15,17,21-heptaen-9-one], the IC50 is less than 10 nM.

In the case of `COCCOc1cc2cc(c1)-c1n[nH]c3ccc(cc13)OCCCNC(=O)OC2` [Example 70, 4-(2-methoxyethoxy)-8,14-dioxa-10,19,20-triazatetracyclo[13.5.2.1^2,6.0^18,21]tricosa-1(20),2,4,6(23),15,17,21-heptaen-9-one], the 50% inhibitory concentration (IC50) is less than 10 nM.

As to `O=C1NCCCOc2ccc3[nH]nc(c3c2)-c2cc(cc(N3CC[C@@H](O)C3)c2)CO1` [Example 25, 4-[(3R)-3-hydroxypyrrolidin-1-yl]-8,14-dioxa-10,19,20-triazatetracyclo[13.5.2.1^2,6.0^18,21]tricosa-1(20),2,4,6(23),15,17,21-heptaen-9-one], the half-maximal inhibitory concentration (IC50) was less than 10 nM.

Regarding `O=C1NCCOc2ccc3[nH]nc(c3c2)-c2cnn(c2)CCCO1` [Example 121, 9,14-dioxa-4,5,11,19,20-pentaazatetracyclo[13.5.2.1^2,5.0^18,21]tricosa-1(20),2(23),3,15,17,21-hexaen-10-one], the IC50 fell in the range of 100 to 1000 nM.

Regarding `C[C@@H]1CCNC(=O)OCc2cncc(c2)-c2n[nH]c3ccc(cc23)O1` [Example 102, (13R)-13-methyl-8,14-dioxa-4,10,19,20-tetraazatetracyclo[13.5.2.1^2,6.0^18,21]tricosa-1(20),2(23),3,5,15(22),16,18(21)-heptaen-9-one], the IC50 was less than 10 nM.

Consider `CN(C)Cc1cc2cc(c1)-c1n[nH]c3ccc(cc13)OCCCNC(=O)OC2` [Example 53, 4-[(dimethylamino)methyl]-8,14-dioxa-10,19,20-triazatetracyclo[13.5.2.1^2,6.0^18,21]tricosa-1(20),2,4,6(23),15,17,21-heptaen-9-one], for which the IC50 is 10 to 100 nM.

As for `C[C@@H]1CCNC(=O)OCc2cccc(c2)-c2n[nH]c3cnc(cc23)O1` [Example 162, (13R)-13-methyl-8,14-dioxa-10,16,19,20-tetraazatetracyclo[13.5.2.1^2,6.0^18,21]tricosa-1(20),2(23),3,5,15(22),16,18(21)-heptaen-9-one], the IC50 is less than 10 nM.

Take `CN1CCCOc2ccc3[nH]nc(c3c2)-c2cncc(c2)COC1=O` [Example 2, 10-methyl-8,14-dioxa-4,10,19,20-tetraazatetracyclo[13.5.2.1^2,6.0^18,21]tricosa-1(20),2,4,6(23),15,17,21-heptaen-9-one]: the IC50 was in the range of 10 to 100 nM.

For `O=C1NCCOc2ccc3[nH]nc(c3c2)-c2cccc(c2)CCO1` [Example 24, 9,14-dioxa-11,19,20-triazatetracyclo[13.5.2.1^2,6.0^18,21]tricosa-1(20),2,4, 6(23),15,17,21-heptaen-10-one], the IC50 was in the range of 10 to 100 nM.

On to `C[C@@H]1CCNC(=O)O[C@@H](C)c2cccc(n2)-c2n[nH]c3ccc(cc23)O1` [Example 150, (7S,13R)-7,13-dimethyl-8,14-dioxa-10,19,20,23-tetraazatetracyclo[13.5.2. 1^2,6.0^18,21]tricosa-1(20),2(23),3,5,15(22),16,18(21)-heptaen-9-one], for which the IC50 was in the range of 10 to 100 nM.

For the molecule `O=C1NCCCOc2ccc3[nH]nc(c3c2)-c2cc(Cl)cc(c2)CO1` [Example 27, 4-chloro-8,14-dioxa-10,19,20-triazatetracyclo[13.5.2.1^2,6.0^18,21]tricosa-1(20), 2,4,6(23),15,17,21-heptaen-9-one], the IC50 is less than 10 nM.
